Source: PubChem BioAssay AID1963451 (Molecular Pharmacology Branch, DTP, NCI, 2024)

System: 521955-158-R6-J3-PDC complex spheroid growth, % test/control
Experiment: Anticancer human tumor 521955-158-R6-J3-PDC patient-derived pancreatic carcinoma cell line growth inhibition [Asc]
Details: for IC50: curve of first compound; for viability, T/C: stronger effect = lower value
Method in brief: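 Tumor cells were grown as multicellular spheroids with stromal HUVEC and mesenchymal stem cells and treated singly or in combination. Concentrations fell in half-log steps from the clinical Cmax, or from 10 microM where none was known.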

[1] = second compound 0.00949 µM, first compound 0.00949 µM
[2] = second compound 0.00949 µM, first compound 0.03 µM
[3] = second compound 0.00949 µM, first compound 0.0949 µM
[4] = second compound 0.00949 µM, first compound 0.3 µM
[5] = second compound 0.03 µM, first compound 0.00949 µM
[6] = second compound 0.03 µM, first compound 0.03 µM
[7] = second compound 0.03 µM, first compound 0.0949 µM
[8] = second compound 0.03 µM, first compound 0.3 µM
[9] = second compound 0.0949 µM, first compound 0.00949 µM
[10] = second compound 0.0949 µM, first compound 0.03 µM
[11] = second compound 0.0949 µM, first compound 0.0949 µM
[12] = second compound 0.0949 µM, first compound 0.3 µM
[13] = second compound 0.3 µM, first compound 0.00949 µM
[14] = second compound 0.3 µM, first compound 0.03 µM
[15] = second compound 0.3 µM, first compound 0.0949 µM
[16] = second compound 0.3 µM, first compound 0.3 µM
[17] = second compound 0.949 µM, first compound 0.00949 µM
[18] = second compound 0.949 µM, first compound 0.03 µM
[19] = second compound 0.949 µM, first compound 0.0949 µM
[20] = second compound 0.949 µM, first compound 0.3 µM
[21] = second compound 3 µM, first compound 0.00949 µM
[22] = second compound 3 µM, first compound 0.03 µM
[23] = second compound 3 µM, first compound 0.0949 µM
[24] = second compound 3 µM, first compound 0.3 µM
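Note: spheroids exposed to compounds for 7 days.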
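Throughout, for viability, T/C: 100% = DMSO vehicle control wells.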

NC(=O)C(=Cn1cnc(-c2cc(C(F)(F)F)cc(C(F)(F)F)c2)n1)c1cncnc1 + CCN1C(C(=O)NC23CCC(C(=O)O)(CC2)CC3)C(c2cccc(Cl)c2F)C2(C(=O)Nc3cc(Cl)ccc32)C12CCCCC2
IC50 (second compound 0.00949 µM): > 300 nM
IC50 (second compound 0.03 µM): > 300 nM
IC50 (second compound 0.0949 µM): > 300 nM
IC50 (second compound 0.3 µM): > 300 nM
IC50 (second compound 0.949 µM): > 300 nM
IC50 (second compound 3 µM): > 300 nM
viability, T/C (second compound 0.00949 µM, first compound 0.000949 µM): 99.6%
viability, T/C (second compound 0.00949 µM, first compound 0.003 µM): 86.8%
viability, T/C [1]: 77.3%
viability, T/C [2]: 99%
viability, T/C [3]: 82.9%
viability, T/C [4]: 93.2%
viability, T/C (second compound 0.03 µM, first compound 0.000949 µM): 93.7%
viability, T/C (second compound 0.03 µM, first compound 0.003 µM): 83.7%
viability, T/C [5]: 69.6%
viability, T/C [6]: 86%
viability, T/C [7]: 103%
viability, T/C [8]: 102%
viability, T/C (second compound 0.0949 µM, first compound 0.000949 µM): 88.8%
viability, T/C (second compound 0.0949 µM, first compound 0.003 µM): 87.3%
viability, T/C [9]: 78.1%
viability, T/C [10]: 85.1%
viability, T/C [11]: 98.8%
viability, T/C [12]: 113%
viability, T/C (second compound 0.3 µM, first compound 0.000949 µM): 88.7%
viability, T/C (second compound 0.3 µM, first compound 0.003 µM): 76.9%
viability, T/C [13]: 85.8%
viability, T/C [14]: 82.2%
viability, T/C [15]: 117%
viability, T/C [16]: 107%
viability, T/C (second compound 0.949 µM, first compound 0.000949 µM): 94%
viability, T/C (second compound 0.949 µM, first compound 0.003 µM): 78.3%
viability, T/C [17]: 95.1%
viability, T/C [18]: 78.7%
viability, T/C [19]: 105%
viability, T/C [20]: 98.1%
viability, T/C (second compound 3 µM, first compound 0.000949 µM): 87.2%
viability, T/C (second compound 3 µM, first compound 0.003 µM): 97.7%
viability, T/C [21]: 69.6%
viability, T/C [22]: 75.7%
viability, T/C [23]: 99.8%
viability, T/C [24]: 84.4%

Cc1nc(N2CCC3(CC2)COC(C)C3N)c(CO)nc1Sc1ccnc(N)c1Cl (centres undefined) + CCN1C(C(=O)NC23CCC(C(=O)O)(CC2)CC3)C(c2cccc(Cl)c2F)C2(C(=O)Nc3cc(Cl)ccc32)C12CCCCC2
IC50 (second compound 0.00949 µM): > 3000 nM
IC50 (second compound 0.03 µM): > 3000 nM
IC50 (second compound 0.0949 µM): > 3000 nM
IC50 (second compound 0.3 µM): > 3000 nM
IC50 (second compound 0.949 µM): > 3000 nM
IC50 (second compound 3 µM): > 3000 nM
viability, T/C [1]: 128%
viability, T/C [2]: 107%
viability, T/C [3]: 92.8%
viability, T/C [4]: 93.8%
viability, T/C (second compound 0.00949 µM, first compound 0.949 µM): 77.8%
viability, T/C (second compound 0.00949 µM, first compound 3 µM): 74.5%
viability, T/C [5]: 109%
viability, T/C [6]: 104%
viability, T/C [7]: 91%
viability, T/C [8]: 106%
viability, T/C (second compound 0.03 µM, first compound 0.949 µM): 93.8%
viability, T/C (second compound 0.03 µM, first compound 3 µM): 85.8%
viability, T/C [9]: 115%
viability, T/C [10]: 113%
viability, T/C [11]: 106%
viability, T/C [12]: 82.6%
viability, T/C (second compound 0.0949 µM, first compound 0.949 µM): 82.2%
viability, T/C (second compound 0.0949 µM, first compound 3 µM): 79.8%
viability, T/C [13]: 112%
viability, T/C [14]: 82.6%
viability, T/C [15]: 113%
viability, T/C [16]: 95%
viability, T/C (second compound 0.3 µM, first compound 0.949 µM): 83%
viability, T/C (second compound 0.3 µM, first compound 3 µM): 92.6%
viability, T/C [17]: 133%
viability, T/C [18]: 104%
viability, T/C [19]: 93.5%
viability, T/C [20]: 92.4%
viability, T/C (second compound 0.949 µM, first compound 0.949 µM): 82.2%
viability, T/C (second compound 0.949 µM, first compound 3 µM): 83.1%
viability, T/C [21]: 114%
viability, T/C [22]: 90.2%
viability, T/C [23]: 104%
viability, T/C [24]: 84.1%
viability, T/C (second compound 3 µM, first compound 0.949 µM): 87.5%
viability, T/C (second compound 3 µM, first compound 3 µM): 72.3%
